Where two headings read alike, the source gives them in different places.
Columns and labels:
[1] = biological target: hCA XII (Homo sapiens, UniProt O43570); assay: stopped flow CO2 hydrase assay, hCA XII; format: biochemical; conditions: for Selectivity ratio I/XII: KI hCA I / KI hCA XII; for Selectivity ratio II/XII: KI hCA II / KI hCA XII
[2] = biological target: hCA I (Homo sapiens, UniProt P00915); assay: stopped flow CO2 hydrase assay, hCA I; format: biochemical
[3] = biological target: hCA IX (Homo sapiens, UniProt Q16790); assay: biochemical; conditions: for Selectivity ratio I/IX: KI hCA I / KI hCA IX; for Selectivity ratio II/IX: KI hCA II / KI hCA IX
[4] = biological target: hCA II (Homo sapiens, UniProt P00918); assay: stopped flow CO2 hydrase assay, hCA II; format: biochemical
[5] = system: MCF-7 breast cancer cell line; assay: SRB cell viability assay, MCF-7; format: cell-based, human; conditions: for IC50: Homo sapiens, MCF7, 72 h, read-out: IC50 MCF-7; for Selectivity index MCF-7: normal HSF versus MCF-7
[6] = system: A549 lung cancer cells; assay: SRB cell viability assay, A549; format: cell-based, human; conditions: for IC50: Homo sapiens, A549, 72 h, read-out: IC50 A549; for Selectivity index A549: normal HSF versus A549
[7] = system: normal human skin fibroblast cell line HSF; assay: SRB cell viability assay, HSF normal cells; format: cell-based; conditions: 72 h, read-out: IC50 HSF
[8] = log of KI in nM, compounds of this paper
[9] = read-out: KI hCA XII, 15 min preincubation, mean from 3 different assays
[10] = read-out: KI hCA I, 15 min preincubation, mean from 3 different assays
[11] = read-out: KI hCA IX, 15 min preincubation, mean from 3 different assays
[12] = read-out: KI hCA II, 15 min preincubation, mean from 3 different assays
[13] = KI hCA XII, 15 min preincubation, mean from 3 different assays
[14] = Log KI hCA XII (experimental), log of KI in nM, compounds of this paper
[15] = KI hCA IX, 15 min preincubation, mean from 3 different assays
[16] = log KI hCA IX (experimental), log of KI in nM, compounds of this paper

Sequence of hCA I (P00915 whole entry): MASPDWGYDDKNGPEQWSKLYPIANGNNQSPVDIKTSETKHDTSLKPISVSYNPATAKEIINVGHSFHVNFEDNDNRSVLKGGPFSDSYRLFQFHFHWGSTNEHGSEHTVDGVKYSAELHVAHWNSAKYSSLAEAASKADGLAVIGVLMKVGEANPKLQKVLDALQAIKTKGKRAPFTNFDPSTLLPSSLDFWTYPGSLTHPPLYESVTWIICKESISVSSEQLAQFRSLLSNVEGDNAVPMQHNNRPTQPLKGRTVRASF
Sequence of hCA XII (O43570 25-354): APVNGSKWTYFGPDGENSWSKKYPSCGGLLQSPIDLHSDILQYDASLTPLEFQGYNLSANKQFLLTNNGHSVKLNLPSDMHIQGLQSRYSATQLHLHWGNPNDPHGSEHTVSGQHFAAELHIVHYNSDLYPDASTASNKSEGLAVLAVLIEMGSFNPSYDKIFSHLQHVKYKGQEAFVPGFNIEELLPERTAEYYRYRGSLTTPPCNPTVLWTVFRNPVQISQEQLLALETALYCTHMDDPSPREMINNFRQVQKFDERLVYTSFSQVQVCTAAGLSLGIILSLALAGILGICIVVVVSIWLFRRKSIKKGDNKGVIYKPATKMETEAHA

Row | Compound | Selectivity ratio I/XII [1] | Selectivity ratio II/XII [1] | Selectivity ratio I/IX [3] | Selectivity ratio II/IX [3] | IC50 [5] [nM] | IC50 [6] [nM] | Ki [1, 13] [nM] | Ki [1, 14] [nM] | Ki [2] [nM] | Ki [3, 15] [nM] | Ki [3, 16] [nM] | IC50 [7] [nM] | Ki [4] [nM] | other results
1 | 2–(2-Oxo-3–(2-(2–(4-sulfamoylphenylamino)acetyl)hydrazono)indolin-1-yl)-N-m-tolylacetamide [4d] | 1.412 | 0.076 | 14.824 | 0.797 | – | – | – | – | – | – | – | – | – | Log KI hCA XII (experimental) [1, 8]: 3.78; Ki [1, 9]: 6020 nM; Ki [2, 10]: 8510 nM; log KI hCA IX (experimental) [3, 8]: 2.759; Ki [3, 11]: 574 nM; Ki [4, 12]: 458 nM
2 | NS(=O)(=O)c1ccc(NC(=O)CN2C(=O)C(=O)c3ccccc32)cc1 [2h, 2–(2,3-Dioxoindolin-1-yl)-N-(4-sulfamoylphenyl)acetamide] | 5.701 | 0.742 | 0.673 | 0.087 | > 100000 | > 100000 | 7.91 | 8 | 45.1 | 67 | 67 | > 100000 | 5.87 | cytotoxic activity against MCF-7 [5]: no cytotoxic activity; cytotoxic activity against A549 [6]: no cytotoxic activity
3 | NS(=O)(=O)c1ccc(NN=C2C(=O)N(CC(=O)Nc3ccccc3)c3ccccc32)cc1 [3a, 2–(2-Oxo-3–(2-(4-sulfamoylphenyl)hydrazono)indolin-1-yl)-N-phenylacetamide] | 1.088 | 0.071 | 18.384 | 1.203 | – | – | 3650 | 3650 | 3970 | 216 | 216 | – | 260 | –
4 | NS(=O)(=O)c1ccc(NN=C2C(=O)N(CC(=O)Nc3ccc(Cl)cc3)c3ccccc32)cc1 [3b, N-(4-Chlorophenyl)-2–(2-oxo-3–(2-(4-sulfamoylphenyl)hydrazono)indolin-1-yl)acetamide] | 1.881 | 0.953 | 7.252 | 3.674 | – | – | 474 | 474 | 892 | 123 | 123 | – | 452 | –
5 | NS(=O)(=O)c1ccc(NN=C2C(=O)N(CC(=O)Nc3ccc(Br)cc3)c3ccccc32)cc1 [3c, N-(4-Bromophenyl)-2–(2-oxo-3–(2-(4-sulfamoylphenyl)hydrazono)indolin-1-yl)acetamide] | 1.245 | 0.092 | 13.392 | 0.991 | > 100000 | 5900 | 612 | 612 | 762 | 56.9 | 57 | > 100000 | 56.4 | Selectivity index A549 [6]: > 16.94
6 | Cc1ccc(NC(=O)CN2C(=O)C(=NNc3ccc(S(N)(=O)=O)cc3)c3ccccc32)cc1 [3d, 2–(2-Oxo-3–(2-(4-sulfamoylphenyl)hydrazono)indolin-1-yl)-N-p-tolylacetamide] | 0.923 | 0.112 | 7.672 | 0.934 | 869 | 5120 | 710 | 710 | 656 | 85.5 | 86.1 | 1460 | 79.9 | Selectivity index MCF-7 [5]: 1.68; Selectivity index A549 [6]: 0.28
7 | NS(=O)(=O)c1ccc(NCC(=O)NN=C2C(=O)N(CC(=O)Nc3ccccc3)c3ccccc32)cc1 [4a, 2–(2-Oxo-3–(2-(2–(4-sulfamoylphenylamino)acetyl)hydrazono)indolin-1-yl)-N-phenylacetamide] | 0.683 | 0.118 | 5.741 | 0.995 | – | – | 6790 | – | 4640 | 808 | 807 | – | 804 | –
8 | NS(=O)(=O)c1ccc(NCC(=O)NN=C2C(=O)N(CC(=O)Nc3ccc(Cl)cc3)c3ccccc32)cc1 [4b, N-(4-Chlorophenyl)-2–(2-oxo-3–(2-(2–(4-sulfamoylphenylamino)acetyl)hydrazono)indolin-1-yl)acetamide] | 1.670 | 0.909 | 2.149 | 1.169 | – | – | 5050 | 5050 | 8430 | 3920 | 3930 | – | 4590 | –
9 | NS(=O)(=O)c1ccc(NCC(=O)NN=C2C(=O)N(CC(=O)Nc3ccccc3Cl)c3ccccc32)cc1 [4f, N-(2-Chlorophenyl)-2–(2-oxo-3–(2-(2–(4-sulfamoylphenylamino)acetyl)hydrazono)indolin-1-yl)acetamide] | 5.823 | 3.937 | 0.819 | 0.554 | – | – | 754 | 753 | 4390 | 5360 | 5360 | – | 2970 | –
10 | NS(=O)(=O)c1ccc(NCC(=O)NN=C2C(=O)N(CC(=O)Nc3ccccc3Br)c3ccccc32)cc1 [4g, N-(2-Bromophenyl)-2–(2-oxo-3–(2-(2–(4-sulfamoylphenylamino)acetyl)hydrazono)indolin-1-yl)acetamide] | 7.221 | 2.373 | 0.829 | 0.272 | – | – | 843 | 843 | 6090 | 7340 | 7330 | – | 2000 | –
11 | COc1cccc2c1C(=O)c1c(O)c3c(c(O)c1C2=O)C[C@@](O)(C(=O)CO)C[C@@H]3O[C@H]1C[C@H](N)[C@H](O)[C@H](C)O1 [Doxorubicin, reference compound] | – | – | – | – | 630 | 190 | – | – | – | – | – | 220 | – | Selectivity index MCF-7 [5]: 0.349; Selectivity index A549 [6]: 1.157
12 | N-(3-Bromophenyl)-2–(2-oxo-3–(2-(2–(4-sulfamoylphenylamino)acetyl)hydrazono) indolin-1-yl)acetamide [4c] | 1.029 | 0.320 | 3.596 | 1.119 | – | – | – | – | – | – | – | – | – | Log KI hCA XII (experimental) [1, 8]: 3.359; Ki [1, 9]: 2280 nM; Ki [2, 10]: 2350 nM; log KI hCA IX (experimental) [3, 8]: 2.816; Ki [3, 11]: 654 nM; Ki [4, 12]: 732 nM
13 | N-(3-Methoxyphenyl)-2–(2-oxo-3–(2-(2–(4-sulfamoylphenylamino)acetyl) hydrazono)indolin-1-yl)acetamide [4e] | 6.122 | 4.416 | 2.957 | 2.133 | – | – | – | – | – | – | – | – | – | Log KI hCA XII (experimental) [1, 8]: 3.182; Ki [1, 9]: 1520 nM; Ki [2, 10]: 9320 nM; log KI hCA IX (experimental) [3, 8]: 3.498; Ki [3, 11]: 3150 nM; Ki [4, 12]: 6720 nM
